Reference: patent EP0330025A2, “Antidiabetic composition comprising isocarbacyclin derivative” (TEIJIN LIMITED, priority 1988, dated 1989)

How the values were obtained:
[1] = system: GK rats with spontaneous diabetes; assay: Test Example 2: measurement of nerve conduction velocity in GK rats with spontaneous diabetes; format: in vivo; conditions: for Nerve conduction velocity (m/sec) Before administration / Nerve conduction velocity (m/sec) 4 weeks later: GK rats; for Nerve conduction velocity (m/sec) Before administration: baseline before oral administration
Experimental: (§1) At the test method was to use four groups, i.e., one group of Wistar rats as control, two groups of GK rats with spontaneous diabetes administered by the test substance and one group of the GK rats not administered by the test substance. Before testing, glucose tolerance and nerve conduction velocity were measured. Then the test substance was orally given for 4 weeks (one group at a dose of 30µg/-Kg/day and another group at a dose of 300µg/Kg/day), and the animals were then checked for glucose tolerance and nerve conduction velocity.
In similar way to Test Example 1, variations in nerve conduction velocity were measured for (17S)-17,20-dimethylisocarbacyclin methyl ester [=(17S)-17,20-dimethyl-9(0)-methano-Δ^6(9α)-prostaglandin I₁ methyl ester as test substance.

[2] = system: GK rats with spontaneous diabetes; assay: Test Example 1: measurement of nerve conduction velocity in GK rats with spontaneous diabetes; format: in vivo; conditions: for Nerve conduction velocity (m/sec) Before administration: baseline before oral administration
From the text: A test substance, (17S)-17,20-dimethylisocarbacyclin [=(17S)-17,20-dimethyl-9(0)-methano-Δ^6(9α)-prostaglandin I₁] was used to observe any improvement effect on nervous disorder of GK rats with spontaneous diabetes.
as §1

[3] = 300µg/Kg/day orally for 4 weeks

SMILES | Nerve conduction velocity (m/sec) Before administration ([1]; 30µg/Kg/day group) [m/sec] | Nerve conduction velocity (m/sec) 4 weeks later ([1]; 30µg/Kg/day orally for 4 weeks) [m/sec] | Nerve conduction velocity (m/sec) Before administration ([1]; 300µg/Kg/day group) [m/sec] | Nerve conduction velocity (m/sec) 4 weeks later [1, 3] [m/sec] | Improvements on nerve conduction velocity ([1]; both groups, 30µg/Kg/day and 300µg/Kg/day, after 4 weeks, in comparison with the control group of GK rats) | Nerve conduction velocity (m/sec) Before administration ([2]; 30µg/Kg/day group) [m/sec] | Nerve conduction velocity (m/sec) 4 weeks later ([2]; 30µg/Kg/day orally for 4 weeks) [m/sec] | Nerve conduction velocity (m/sec) Before administration ([2]; 300µg/Kg/day group) [m/sec] | Nerve conduction velocity (m/sec) 4 weeks later [2, 3] [m/sec]
CCCC[C@H](C)C[C@H](O)/C=C/[C@@H]1[C@H]2CC(CCCCC(=O)OC)=C[C@H]2C[C@H]1O [(17S)-17,20-dimethyl-9(0)-methano-Δ^6(9α)-prostaglandin I₁ methyl ester] | 30.9 ± 1.0 | 38.1 ± 1.0 | 32.4 ± 0.7 | 37.5 ± 1.4 | Improvements on nerve conduction velocity were observed | – | – | – | –
CCCC[C@H](C)C[C@H](O)/C=C/[C@@H]1[C@H]2CC(CCCCC(=O)O)=C[C@H]2C[C@H]1O [(17S)-17,20-dimethylisocarbacyclin, (17S)-17,20-dimethyl-9(0)-methano-Δ^6(9α)-prostaglandin I₁] | – | – | – | – | – | 33.7 ± 1.2 | 40.5 ± 0.8 | 35.0 ± 0.8 | 42.2 ± 0.9
